One block for each compound: values may come before it.
Tests used:
XOR [1] = details: read-out: Ki for the conversion of xanthine to uric acid; cited from earlier work
[2] = target: T1, Purine nucleoside phosphorylase (PNP) (Homo sapiens, UniProt P00491); design: method as in PMID 5653179, PMID 121041; details: cited from earlier work
T1 construct: purchased Sigma-Aldrich; host or cells: E. coli
T1 sequence (P00491 1-289): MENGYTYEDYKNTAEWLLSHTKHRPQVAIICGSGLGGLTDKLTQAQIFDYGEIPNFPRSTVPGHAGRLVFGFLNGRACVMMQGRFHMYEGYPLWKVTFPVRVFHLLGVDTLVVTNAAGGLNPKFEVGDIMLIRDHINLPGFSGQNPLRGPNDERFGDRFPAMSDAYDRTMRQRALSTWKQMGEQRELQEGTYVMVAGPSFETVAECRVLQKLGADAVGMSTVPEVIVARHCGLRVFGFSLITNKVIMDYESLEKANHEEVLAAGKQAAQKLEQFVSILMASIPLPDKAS

XOR [3] = target: T2, XOR (Bos taurus, UniProt P80457); assay: XOR kinetics with phenazine methosulfate / cytochrome c reduction (550 nm); type: biochemical, bovine; details: XOR, PMS
T2 construct: Bovine milk was obtained from the animal farm of the Nippon Veterinary and Life Science University; from tissue; host or cells: bovine milk
T2 sequence (P80457 whole entry): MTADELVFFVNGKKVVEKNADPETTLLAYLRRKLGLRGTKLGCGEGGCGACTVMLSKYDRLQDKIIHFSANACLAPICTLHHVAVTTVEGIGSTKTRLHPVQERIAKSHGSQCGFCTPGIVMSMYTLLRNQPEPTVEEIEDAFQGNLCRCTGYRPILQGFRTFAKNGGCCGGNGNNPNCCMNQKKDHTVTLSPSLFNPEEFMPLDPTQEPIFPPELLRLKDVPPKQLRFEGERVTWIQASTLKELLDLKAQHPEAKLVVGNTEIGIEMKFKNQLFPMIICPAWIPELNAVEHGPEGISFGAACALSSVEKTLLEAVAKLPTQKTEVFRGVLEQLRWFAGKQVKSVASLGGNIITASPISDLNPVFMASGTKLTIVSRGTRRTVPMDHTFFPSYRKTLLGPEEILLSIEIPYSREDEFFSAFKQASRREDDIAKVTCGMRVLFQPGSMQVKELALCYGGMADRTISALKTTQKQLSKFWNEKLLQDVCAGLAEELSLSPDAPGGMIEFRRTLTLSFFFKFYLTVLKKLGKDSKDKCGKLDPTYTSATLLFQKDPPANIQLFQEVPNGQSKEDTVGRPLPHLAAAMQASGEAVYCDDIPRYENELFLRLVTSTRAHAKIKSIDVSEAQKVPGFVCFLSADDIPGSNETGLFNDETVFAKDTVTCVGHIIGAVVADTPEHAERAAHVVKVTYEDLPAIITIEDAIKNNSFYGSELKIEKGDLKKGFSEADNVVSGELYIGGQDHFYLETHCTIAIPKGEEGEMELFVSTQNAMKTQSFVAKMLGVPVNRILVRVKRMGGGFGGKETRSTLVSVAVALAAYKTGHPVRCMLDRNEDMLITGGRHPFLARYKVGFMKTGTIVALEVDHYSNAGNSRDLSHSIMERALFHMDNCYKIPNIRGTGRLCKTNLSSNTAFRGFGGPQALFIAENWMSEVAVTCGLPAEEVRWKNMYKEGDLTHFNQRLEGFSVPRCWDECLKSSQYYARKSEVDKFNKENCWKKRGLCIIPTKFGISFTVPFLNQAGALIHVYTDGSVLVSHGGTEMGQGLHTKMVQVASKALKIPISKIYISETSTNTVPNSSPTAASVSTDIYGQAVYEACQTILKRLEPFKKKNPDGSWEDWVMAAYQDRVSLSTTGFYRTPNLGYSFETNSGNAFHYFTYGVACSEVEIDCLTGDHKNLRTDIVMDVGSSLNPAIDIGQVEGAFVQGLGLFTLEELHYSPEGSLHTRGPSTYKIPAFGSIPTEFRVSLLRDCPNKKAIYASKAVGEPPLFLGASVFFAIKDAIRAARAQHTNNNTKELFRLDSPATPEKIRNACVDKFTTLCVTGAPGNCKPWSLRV
Protocol: Therefore, phenazine methosulfate was used to induce direct, rapid reoxidation of the molybdenum center ([22], [23]).
Bovine milk was obtained from the animal farm of the Nippon Veterinary and Life Science University. […] The dehydrogenase form of the enzyme (XDH) was obtained by reacting XO immediately upon purification with 5 mM DTT at pH 8.5, 25 °C for 1 h. XO and XDH assays were carried out at 25 °C under aerobic conditions. […] A total of 500 μM β-NAD^+ was added to the same reaction solution for XDH activity. Physiological conditions such as pH 7.4 (0.1 M potassium phosphate buffer (KPB), 0.2 mM EDTA) and the addition of 50 μM β-NADH were also used. […] In addition, the enzyme reaction solution was quenched with perchloric acid and neutralized with K2CO3, with products analyzed using HPLC as described below. Spectrophotometric data were analyzed using UV-Probe software Ver. 2.70 or LabSolutions UV-Vis Ver. […] Kinetic parameters were determined from nonlinear curve fits of raw data using GraphPad Prism 9 software.
A295 indicates the concentration of uric acid yielded by XOR. […] A295 indicates the concentration of uric acid yielded by XOR. Figure S2. The XOR inhibition mode of oxypurinol.A–G, Lineweaver-Burk plots were generated to visualize data and estimated the inhibition patterns. Data are representative of least two independent experiments. […] Figure S3. […] B, mode of inhibition of oxypurinol on the inosine degradation reaction of PNP. […] 0, 250, 375, 500, 750 and 1000 μM of oxypurinol were used. […] The rate of NAD^+ conversion to NADH was measured at A340 nm.

Structure (SMILES): COc1cc(-c2cnn3c(=O)nc[nH]c23)ccc1[S+]([O-])c1ccccc1 (stereo not shown) [BOF]
Ki (XOR [1]): < 0.01 µM

Structure (SMILES): O=c1ncnc2n([C@H]3O[C@@H](CO)[C@H](O)[C@@H]3O)[nH]cc1-2 [ribosyl derivative]
Ki [2]: > 200 µM

Types of inhibition (XOR [3]; substrate hypoxanthine): Mixed
Types of inhibition (XOR [3]; substrate xanthine): Mixed
Structure (SMILES): Cc1nc(-c2ccc(OCC(C)C)c(C#N)c2)sc1C(=O)O [Febuxostat]

From publication PMC10511816 (The Journal of Biological Chemistry, 2023)
